In patent publication US8962641B2, “Pyrimidine-substituted pyrrolidine derivatives, pharmaceutical compositions and uses thereof” (Boehringer Ingelheim International GmbH, priority 2013, dated 2015):

Molecular target: human ACC2 (Homo sapiens (Human), UniProt O00763)
Test: ACC2 assay (spectrophotometric 384 well assay, NADH-linked kinetic method)
Type: biochemical
Details: hACC2 construct lacking 128 N-terminal amino acids; coupled lactate dehydrogenase/pyruvate kinase reaction, 340 nm, 25° C.
Protocol: Spectrophotometric 384 Well Assay
Malonyl CoA formation by acetyl CoA carboxylases is stoichometrically linked to the consumption of ATP. ACC2 activity is measured in a NADH-linked kinetic method measuring ADP generated during the ACC reaction using a coupled lactate dehydrogenase/pyruvate kinase reaction.
The protein is then expressed in insect cells using a baculoviral expression system. Protein purification is performed by anion exchange.
All compounds are dissolved in dimethyl sulfoxide (DMSO) to a concentration of 10 mM.
The enzymatic reaction is then started by addition of a mixture of NADH, acetyl Coenzyme A (both 200 μM f.c.) and ATP (500 uM f.c.). The decrease of the optical density (slope S) is then determined at 25° C. at a wavelength of 340 nm over 15 minutes in a spectrophotometric reader.
Each assay microtiter plate contains wells with vehicle instead of compound as controls for the non-inhibited enzyme (100% CTL; ‘HIGH’) and wells without acetyl-CoA as controls for non-specific NADH degradation (0% CTL; ‘LOW’).

human ACC2, sequence (O00763 129-2458): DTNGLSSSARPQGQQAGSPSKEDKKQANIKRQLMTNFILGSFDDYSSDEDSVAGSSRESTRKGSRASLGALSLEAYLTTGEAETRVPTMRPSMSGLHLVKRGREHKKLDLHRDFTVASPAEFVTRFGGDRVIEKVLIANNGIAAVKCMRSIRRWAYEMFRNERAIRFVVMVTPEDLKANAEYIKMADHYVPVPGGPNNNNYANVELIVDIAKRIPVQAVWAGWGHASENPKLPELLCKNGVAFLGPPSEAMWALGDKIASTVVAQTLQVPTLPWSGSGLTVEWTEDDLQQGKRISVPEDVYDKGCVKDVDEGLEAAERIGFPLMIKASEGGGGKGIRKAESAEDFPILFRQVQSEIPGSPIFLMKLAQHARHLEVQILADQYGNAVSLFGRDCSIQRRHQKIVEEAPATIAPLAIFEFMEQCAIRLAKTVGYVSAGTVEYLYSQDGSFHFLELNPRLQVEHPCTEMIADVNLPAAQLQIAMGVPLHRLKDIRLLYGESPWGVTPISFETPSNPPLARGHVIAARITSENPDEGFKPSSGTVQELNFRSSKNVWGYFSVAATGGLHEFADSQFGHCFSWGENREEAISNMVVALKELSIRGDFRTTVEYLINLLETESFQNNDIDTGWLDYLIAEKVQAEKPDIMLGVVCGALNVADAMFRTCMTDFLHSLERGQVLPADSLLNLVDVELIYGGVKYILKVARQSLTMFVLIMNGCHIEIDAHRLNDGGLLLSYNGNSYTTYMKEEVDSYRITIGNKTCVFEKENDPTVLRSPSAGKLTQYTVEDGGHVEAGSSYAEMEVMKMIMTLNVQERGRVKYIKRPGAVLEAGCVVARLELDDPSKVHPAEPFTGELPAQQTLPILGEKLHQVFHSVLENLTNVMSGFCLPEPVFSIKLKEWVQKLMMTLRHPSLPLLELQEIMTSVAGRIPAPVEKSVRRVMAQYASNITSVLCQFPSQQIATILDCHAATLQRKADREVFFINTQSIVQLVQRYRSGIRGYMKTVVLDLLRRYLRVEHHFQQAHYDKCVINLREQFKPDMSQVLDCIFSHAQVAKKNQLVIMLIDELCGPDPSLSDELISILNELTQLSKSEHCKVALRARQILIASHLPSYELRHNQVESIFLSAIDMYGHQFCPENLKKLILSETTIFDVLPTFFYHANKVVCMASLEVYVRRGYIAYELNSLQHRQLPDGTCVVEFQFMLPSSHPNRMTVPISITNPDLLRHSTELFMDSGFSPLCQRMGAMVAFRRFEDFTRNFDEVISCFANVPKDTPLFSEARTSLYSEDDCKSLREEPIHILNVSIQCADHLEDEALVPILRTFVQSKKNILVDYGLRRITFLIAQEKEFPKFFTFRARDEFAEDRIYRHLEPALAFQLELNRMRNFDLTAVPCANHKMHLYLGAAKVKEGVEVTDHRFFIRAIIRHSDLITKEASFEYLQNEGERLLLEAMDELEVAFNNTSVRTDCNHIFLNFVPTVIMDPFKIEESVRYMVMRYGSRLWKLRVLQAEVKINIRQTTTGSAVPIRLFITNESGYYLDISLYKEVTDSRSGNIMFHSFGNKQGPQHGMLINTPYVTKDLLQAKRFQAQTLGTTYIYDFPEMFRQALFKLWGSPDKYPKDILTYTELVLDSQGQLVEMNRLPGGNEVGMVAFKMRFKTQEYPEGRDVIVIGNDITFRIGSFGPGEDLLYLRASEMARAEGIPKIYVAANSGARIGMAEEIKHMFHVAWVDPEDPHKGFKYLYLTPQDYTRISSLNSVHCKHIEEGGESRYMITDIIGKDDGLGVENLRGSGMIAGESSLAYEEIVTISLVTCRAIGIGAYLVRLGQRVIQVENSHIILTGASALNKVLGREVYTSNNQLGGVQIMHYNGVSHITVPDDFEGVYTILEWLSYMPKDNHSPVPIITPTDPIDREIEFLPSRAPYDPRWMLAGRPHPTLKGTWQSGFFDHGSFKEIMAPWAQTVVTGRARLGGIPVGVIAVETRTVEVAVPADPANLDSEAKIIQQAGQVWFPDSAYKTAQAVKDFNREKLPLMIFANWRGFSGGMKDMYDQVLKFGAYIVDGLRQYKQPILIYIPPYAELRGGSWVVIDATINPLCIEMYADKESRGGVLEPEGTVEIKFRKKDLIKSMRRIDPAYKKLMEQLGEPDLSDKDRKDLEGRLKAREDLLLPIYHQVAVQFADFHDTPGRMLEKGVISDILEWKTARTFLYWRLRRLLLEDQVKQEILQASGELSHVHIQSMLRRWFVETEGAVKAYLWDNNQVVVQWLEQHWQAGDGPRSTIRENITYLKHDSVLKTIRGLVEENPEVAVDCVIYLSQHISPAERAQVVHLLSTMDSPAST

SMILES	IC50 [nM]
CC(=O)N[C@@H](C)c1ccc(O[C@@H]2CCN(c3ncnc(OC4CCCC4)c3Cl)C2)cc1 [Example 7.53]	32
COc1c(OCC(F)F)ncnc1N1CC[C@@H](Oc2ccc([C@H](C)NC(C)=O)cc2)C1 [Example 7.54]	162
COc1c(OC2CCCC2)ncnc1N1CC[C@@H](Oc2ccc([C@H](C)NC(C)=O)cc2)C1 [Example 7.55]	69
COc1c(OCC2CC2(F)F)ncnc1N1CC[C@@H](Oc2ccc([C@H](C)NC(C)=O)cc2)C1 (stereo partly drawn) [Example 7.56]	75
CC(=O)N[C@@H](C)c1ccc(O[C@@H]2CCN(c3ncnc(OCC(F)F)c3Cl)C2)cc1 [Example 7.57]	109
COc1c(OCC(C)(C)O)ncnc1N1CC[C@@H](Oc2ccc([C@H](C)NC(C)=O)cc2)C1 [Example 7.58]	355
COc1c(OCC2CC2)ncnc1N1CC[C@@H](Oc2ccc([C@H](C)NC(C)=O)cc2)C1 [Example 7.59]	39
COC(C)(C)COc1ncnc(N2CC[C@@H](Oc3ccc([C@H](C)NC(C)=O)cc3)C2)c1Cl [Example 7.60]	145
COc1c(OCC(C)(C)OC)ncnc1N1CC[C@@H](Oc2ccc([C@H](C)NC(C)=O)cc2)C1 [Example 7.61]	233
CCC(=O)Nc1nc(C)c(C(=O)N[C@@H](C)c2ccc(O[C@@H]3CCN(c4ncnc(OCC5CC5)c4OC)C3)cc2)s1 [Example 7.63]	112
CC(=O)N[C@@H](C)c1ccc(O[C@@H]2CCN(c3ncnc(OC4CCOCC4)c3Cl)C2)cc1 [Example 7.64]	128
CCC(=O)Nc1nc(C)c(C(=O)N[C@@H](C)c2ccc(O[C@@H]3CCN(c4ncnc(OCC(C)(C)O)c4F)C3)cc2)s1 [Example 7.65]	650
CCC(=O)Nc1nc(C)c(C(=O)N[C@@H](C)c2ccc(O[C@@H]3CCN(c4ncnc(OCC(C)(C)O)c4Cl)C3)cc2)s1 [Example 7.66]	723
CC(=O)N[C@@H](C)c1ccc(O[C@@H]2CCN(c3nc(OCC4CC4(F)F)ncc3F)C2)cc1 (stereo partly drawn) [Example 7.67]	789
CC(=O)N[C@@H](C)c1ccc(O[C@@H]2CCN(c3nc(N(C)C)ncc3F)C2)cc1 [Example 8.1, N—((S)-1-(4-((R)-1-(2-(dimethylamino)-5-fluoropyrimidin-4-yl)pyrrolidin-3-yloxy)phenyl)ethyl)acetamide]	55
CC(=O)N[C@@H](C)c1ccc(O[C@@H]2CCN(c3cc(N(C)CC4CC4)ncn3)C2)cc1 [Example 8.2]	424
CC(=O)N[C@@H](C)c1ccc(O[C@@H]2CCN(c3ccnc(N(C)CC4CC4)n3)C2)cc1 [Example 8.3]	125
CC(=O)N[C@@H](C)c1ccc(O[C@@H]2CCN(c3ccnc(NC4CCCC4)n3)C2)cc1 [Example 8.4]	1030
CC(=O)N[C@@H](C)c1ccc(O[C@@H]2CCN(c3ccnc(N4CCCC4)n3)C2)cc1 [Example 8.5]	403
CCCN(C)c1nccc(N2CC[C@@H](Oc3ccc([C@H](C)NC(C)=O)cc3)C2)n1 [Example 8.6]	102
CCCN(C)c1cc(N2CC[C@@H](Oc3ccc([C@H](C)NC(C)=O)cc3)C2)ncn1 [Example 8.7]	865
CC(=O)N[C@@H](C)c1ccc(O[C@@H]2CCN(c3nc(N4CCCCC4)ncc3F)C2)cc1 [Example 8.8]	45

SMILES	IC50 [nM]
CC(=O)N[C@@H](C)c1ccc(O[C@@H]2CCN(c3nc(N(C)CC4CC4)ncc3F)C2)cc1 [Example 8.9]	33
CC(=O)N[C@@H](C)c1ccc(O[C@@H]2CCN(c3nc(NC4CCCC4)ncc3F)C2)cc1 [Example 8.10]	190
CC(=O)N[C@@H](C)c1ccc(O[C@@H]2CCN(c3nc(N(C)C4CCCC4)ncc3F)C2)cc1 [Example 8.11]	58
CC(=O)N[C@@H](C)c1ccc(O[C@@H]2CCN(c3nc(N4CCCC4)ncc3F)C2)cc1 [Example 8.12]	67
CC(=O)N[C@@H](C)c1ccc(O[C@@H]2CCN(c3ccnc(N(C)C)n3)C2)cc1 [Example 8.14]	710
CC(=O)N[C@@H](C)c1ccc(O[C@@H]2CCN(c3ccnc(N4CCCC4C)n3)C2)cc1 (stereo partly drawn) [Example 8.16]	354
CC(=O)N[C@@H](C)c1ccc(O[C@@H]2CCN(c3ccnc(N4CCC(C)C4)n3)C2)cc1 (stereo partly drawn) [Example 8.17]	167
CC(=O)N[C@@H](C)c1ccc(O[C@@H]2CCN(c3ccnc(N4CCCCC4)n3)C2)cc1 [Example 8.18]	160
CC(=O)N[C@@H](C)c1ccc(O[C@@H]2CCN(c3ccnc(N(C)C4CC4)n3)C2)cc1 [Example 8.19]	475
CC(=O)N[C@@H](C)c1ccc(O[C@@H]2CCN(c3ccnc(N(C)C4CCCC4)n3)C2)cc1 [Example 8.20]	170
CCN(C)c1nccc(N2CC[C@@H](Oc3ccc([C@H](C)NC(C)=O)cc3)C2)n1 [Example 8.21]	190
CC(=O)N[C@@H](C)c1ccc(O[C@@H]2CCN(c3ccnc(N(C)CCc4ccccc4)n3)C2)cc1 [Example 8.22]	986
CC(=O)N[C@@H](C)c1ccc(O[C@@H]2CCN(c3ccnc(N(C)Cc4ccccc4)n3)C2)cc1 [Example 8.23]	185
CCN(CC)c1nccc(N2CC[C@@H](Oc3ccc([C@H](C)NC(C)=O)cc3)C2)n1 [Example 8.24]	174
CC(=O)N[C@@H](C)c1ccc(O[C@@H]2CCN(c3ccnc(N(C)C(C)C)n3)C2)cc1 [Example 8.25]	294
CCN(CC)c1ncc(F)c(N2CC[C@@H](Oc3ccc([C@H](C)NC(C)=O)cc3)C2)n1 [Example 8.26]	69
CC(=O)N[C@@H](C)c1ccc(O[C@@H]2CCN(c3nc(N(C)CC(F)F)ncc3F)C2)cc1 [Example 8.27]	65
CC(=O)N[C@@H](C)c1ccc(O[C@@H]2CCN(c3nc(N(C)CC(C)(C)O)ncc3F)C2)cc1 [Example 8.28]	809
CC(=O)N[C@@H](C)c1ccc(O[C@@H]2CCN(c3nc(N(C)CC4CCOC4)ncc3F)C2)cc1 (stereo partly drawn) [Example 8.29]	150
CC(=O)N[C@@H](C)c1ccc(O[C@@H]2CCN(c3nc(N(C)CC(F)(F)F)ncc3F)C2)cc1 [Example 8.30]	184
CCN(C)c1ncc(F)c(N2CC[C@@H](Oc3ccc([C@H](C)NC(C)=O)cc3)C2)n1 [Example 8.31]	95
CC(=O)N[C@@H](C)c1ccc(O[C@@H]2CCN(c3nc(N(C)CCC(C)(C)O)ncc3F)C2)cc1 [Example 8.32]	1070

SMILES	IC50 [nM]
CC(=O)N[C@@H](C)c1ccc(O[C@@H]2CCN(c3nc(N(C)C4CCCC4)ncc3C#N)C2)cc1 [Example 8.33]	1060
CCCN(C)c1ncc(C#N)c(N2CC[C@@H](Oc3ccc([C@H](C)NC(C)=O)cc3)C2)n1 [Example 8.34]	1080
CCN(CC)c1ncc(C#N)c(N2CC[C@@H](Oc3ccc([C@H](C)NC(C)=O)cc3)C2)n1 [Example 8.35]	824
CC(=O)N[C@@H](C)c1ccc(O[C@@H]2CCN(c3nc(NC4(C)CCCC4)ncc3F)C2)cc1 [Example 8.36]	539
CC(=O)N[C@@H](C)c1ccc(O[C@@H]2CCN(c3ccnc(N(C)CCC#N)n3)C2)cc1 [Example 8.37]	349
COc1ccc(N(C)c2nccc(N3CC[C@@H](Oc4ccc([C@H](C)NC(C)=O)cc4)C3)n2)cc1 [Example 8.38]	1220
COc1cccc(N(C)c2nccc(N3CC[C@@H](Oc4ccc([C@H](C)NC(C)=O)cc4)C3)n2)c1 [Example 8.39]	452
CC(=O)N[C@@H](C)c1ccc(O[C@@H]2CCN(c3ccnc(N4CCC4)n3)C2)cc1 [Example 8.40]	628
CC(=O)N[C@@H](C)c1ccc(O[C@@H]2CCN(c3ccnc(N(C)CC4CCOC4)n3)C2)cc1 (stereo partly drawn) [Example 8.41]	286
COC(CN(C)c1nccc(N2CC[C@@H](Oc3ccc([C@H](C)NC(C)=O)cc3)C2)n1)OC [Example 8.42]	632
CC(=O)N[C@@H](C)c1ccc(O[C@@H]2CCN(c3ccnc(N4CCC(F)(F)C4)n3)C2)cc1 [Example 8.43]	79
CC(=O)N[C@@H](C)c1ccc(O[C@@H]2CCN(c3ccnc(N(C)CC(F)F)n3)C2)cc1 [Example 8.44]	55
CC(=O)N[C@@H](C)c1ccc(O[C@@H]2CCN(c3ccnc(N4CC(F)(F)C4)n3)C2)cc1 [Example 8.45]	192
CC(=O)N[C@@H](C)c1ccc(O[C@@H]2CCN(c3ccnc(N(C)CC(F)(F)F)n3)C2)cc1 [Example 8.46]	89
CCCN(C)c1ncc(Cl)c(N2CC[C@@H](Oc3ccc([C@H](C)NC(C)=O)cc3)C2)n1 [Example 8.47]	65
CCCN(C)c1ncc(C)c(N2CC[C@@H](Oc3ccc([C@H](C)NC(C)=O)cc3)C2)n1 [Example 8.48]	312
COCCN(C)c1nccc(N2CC[C@@H](Oc3ccc([C@H](C)NC(C)=O)cc3)C2)n1 [Example 8.49]	219
CC(=O)N[C@@H](C)c1ccc(O[C@@H]2CCN(c3nc(N4CCCC4)ncc3Cl)C2)cc1 [Example 8.50]	157
CC(=O)N[C@@H](C)c1ccc(O[C@@H]2CCN(c3nc(N(C)C)ncc3Cl)C2)cc1 [Example 8.51]	124
CC(=O)N[C@@H](C)c1ccc(O[C@@H]2CCN(c3nc(N(C)CC4CCOC4)ncc3C)C2)cc1 (stereo partly drawn) [Example 8.52]	905
CCN(C)c1ncc(C)c(N2CC[C@@H](Oc3ccc([C@H](C)NC(C)=O)cc3)C2)n1 [Example 8.53]	452
CC(=O)N[C@@H](C)c1ccc(O[C@@H]2CCN(c3nc(N(C)CC4CCOC4)ncc3Cl)C2)cc1 (stereo partly drawn) [Example 8.54]	125
